The supplement of paper PMC8988213
Structures can show the parent of a compound that is named as a salt.

Key:
[1] = tested on: ID211 patient-derived PDAC 2D line (post-FOLFIRINOX); assay: normalised area under dose-response curve (viability relative to DMSO, 7 doses up to 10 µM) (fraction (AUC)); higher = less sensitive (more viability retained); settings: 72 h; top dose: 10 µM
Description: (§1)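 Patient-derived 2D PDAC cells (ID188 pre-FOLFIRINOX, passage 5+27; ID211 post-FOLFIRINOX, passage 9+11), 1,500-3,000 cells/well in 96-well plates, were treated with a 415-compound Selleck library in seven concentrations (3-fold dilution series, top 10 µM) for 72 h. Viability was read by CellTiter-Glo ATP luminescence, normalised to the DMSO control, and the area under the dose-response curve was computed with the GRmetrics R package; a lower AUC means higher sensitivity.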

[2] = tested on: ID188 patient-derived PDAC 2D line (pre-FOLFIRINOX); assay: as above; settings: 72 h; top dose: 10 µM
Description: as §1

| SMILES | normalised area under dose-response curve [1] | normalised area under dose-response curve [2] |
| --- | --- | --- |
| O=c1[nH]c(C2CCCN2)nc2c1oc1ccc(Cl)cc12 (configuration not stated) | 0.897 | 0.916 |
| CN(C)CC#Cc1ccc(OCCCc2sc(N3CCc4cccc(C(=O)Nc5nc6ccccc6s5)c4C3)nc2C(=O)O)c(F)c1 | 0.592 | 0.789 |
| O=C(c1ccc(C(=O)N2CCC(N3CCCC3)CC2)c(Nc2ccccc2)c1)N1CCC(N2CCCC2)CC1 [UNC1215] | 0.951 | 0.931 |
| Cc1ncc(Cl)cc1NCc1ccc(C(=O)N[C@@H](CC2CCCC2)C(=O)NC2CC2)s1 | 0.865 | 0.923 |
| Cc1cc([C@@H](C)Nc2ccccc2C(=O)O)c2nc(N3CCOCC3)cc(=O)n2c1 [AZD6482] | 0.835 | 0.862 |
| COCC[n+]1c2c(n(Cc3cnccn3)c1C)C(=O)c1ccccc1C2=O [YM155 (Sepantronium Bromide)] | 0.279 | 0.0409 |
| CCc1c2c(nc3ccc(OC(=O)N4CCC(N5CCCCC5)CC4)cc13)-c1cc3c(c(=O)n1C2)COC(=O)[C@]3(O)CC [Irinotecan HCl Trihydrate] | 0.807 | 0.847 |
| COc1cc(Br)c(Nc2nc(-c3c(C)nc4ncccn34)cs2)c(Br)c1 [PTC-209 HBr] | 0.819 | 0.836 |
| C#Cc1cccc(Nc2ncnc3cc(OCCOC)c(OCCOC)cc23)c1 [Erlotinib] | 0.7 | 0.902 |
| CCCS(=O)(=O)Nc1ccc(F)c(C(=O)c2c[nH]c3ncc(-c4ccc(Cl)cc4)cc23)c1F [Vemurafenib (PLX4032, RG7204)] | 0.883 | 0.813 |
| C=CC(=O)N1CCC(Oc2cc3c(Nc4ccc(Cl)c(Cl)c4F)ncnc3cc2OC)CC1 [Poziotinib (HM781-36B)] | 0.54 | 0.908 |
| CCC1C/C(=C\c2cccnc2)C(=O)/C(=C/c2cccnc2)C1 (configuration not stated) [MCB-613] | 0.778 | 0.764 |
| Nc1[nH]nc2nnc(-c3c(-c4ccccc4)nn4ccccc34)cc12 | 0.849 | 0.847 |
| Cc1cc(Nc2nc(N[C@@H](C)c3ncc(F)cn3)ncc2Cl)[nH]n1 [AZD1480] | 0.766 | 0.952 |
| Cc1cc(Cl)ccc1OCCCC(=O)NO [Droxinostat] | 0.936 | 0.946 |
| C=CC(=O)Nc1cc(Nc2nccc(-c3cn(C)c4ccccc34)n2)c(OC)cc1N(C)CCN(C)C [Osimertinib (AZD9291)] | 0.749 | 0.855 |
| COc1cc2c(c(OC)c1OC)-c1ccc(OC)c(=O)cc1[C@@H](NC(C)=O)CC2 [Colchicine] | 0.589 | 0.562 |
| Oc1nc(-c2ccc(C(F)(F)F)cc2)nc2c1CSCC2 [XAV-939] | 0.928 | 0.89 |
| CC1=C(C(=O)OC2CCCCC2)C(c2ccc([N+](=O)[O-])cc2)C2=C(CC(C)(C)CC2=O)N1 (configuration not stated) [FLI-06] | 0.792 | 0.936 |
| Nc1nccc(Oc2ccc3c(C(=O)Nc4cccc(C(F)(F)F)c4)cccc3c2)n1 [BAW2881 (NVP-BAW2881)] | 0.961 | 0.885 |
| CCc1cnn2c(NCc3ccc[n+]([O-])c3)cc(N3CCCC[C@H]3CCO)nc12 | 0.161 | 0.426 |

| SMILES | normalised area under dose-response curve [1] | normalised area under dose-response curve [2] |
| --- | --- | --- |
| COc1ccccc1C(=O)Nc1cc2c(cc1N1CCCC1)n(C)c(=O)n2C [PFI-4] | 0.787 | 0.955 |
| CCCS(=O)(=O)Nc1ccc(F)c(C(=O)c2c[nH]c3ncc(Cl)cc23)c1F [PLX-4720] | 0.842 | 0.886 |
| COc1ccc2c(c1)c(CC(=O)N1CCOCC1)c(C)n2C(=O)c1ccc(Cl)cc1 [BML-190] | 1.01 | 0.958 |
| COc1cc2nc(N3CCCC3)nc(NCCCCCN3CCCC3)c2cc1OC [UNC0379] | 0.829 | 0.943 |
| O=C(NCCCNc1nc(Nc2cccc(NC(=O)N3CCCC3)c2)ncc1I)c1cccs1 [BX-795] | 0.883 | 0.885 |
| Cn1nccc1Nc1nccc(-c2ccn([C@H](CO)c3ccc(Cl)c(F)c3)c(=O)c2)n1 [GDC-0994] | 0.677 | 0.824 |
| COc1cc(OC)cc(N(CCNC(C)C)c2ccc3ncc(-c4cnn(C)c4)nc3c2)c1 | 0.893 | 0.927 |
| Cc1sc2c(c1C)C(c1ccc(Cl)cc1)=N[C@@H](CC(=O)OC(C)(C)C)c1nnc(C)n1-2 [(+)-JQ1] | 0.652 | 0.842 |
| C/C=C1\NC(=O)[C@H]2CSSCC/C=C/[C@H](CC(=O)N[C@H](C(C)C)C(=O)N2)OC(=O)[C@H](C(C)C)NC1=O [Romidepsin] | 0.171 | 0.138 |
| CN1CCN(CCOc2cc(OC3CCOCC3)c3c(Nc4c(Cl)ccc5c4OCO5)ncnc3c2)CC1 [Saracatinib (AZD0530)] | 0.609 | 0.858 |
| CC(=O)N1c2ccc(-c3ccc(C(=O)O)cc3)cc2[C@H](Nc2ccc(Cl)cc2)C[C@@H]1C | 0.732 | 0.815 |
| C[C@]1(c2nc3c(C(N)=O)cccc3[nH]2)CCCN1 [Veliparib (ABT-888)] | 0.923 | 0.913 |
| O=C(O)CCNc1cc(N2CCc3ccccc3CC2)nc(-c2ccccn2)n1 [GSK J1] | 0.832 | 1 |
| COc1ccc(CCc2nc3cc(-c4c(C)noc4C)ccc3n2C[C@H](C)N2CCOCC2)cc1Cl [SGC-CBP30] | 0.951 | 0.984 |
| c1ccc2c(CCNc3ccc(Nc4ccncc4)cc3)c[nH]c2c1 | 0.796 | 0.88 |
| CC[C@H](NC(=O)[C@H](C)NC)C(=O)N1C[C@@H](O)C[C@H]1Cc1c(-c2[nH]c3cc(F)ccc3c2C[C@@H]2C[C@H](O)CN2C(=O)[C@H](CC)NC(=O)[C@H](C)NC)[nH]c2cc(F)ccc12 [Birinapant] | 1.02 | 0.315 |
| Nc1ncn([C@@H]2O[C@H](CO)[C@@H](O)[C@H]2O)c(=O)n1 [Azacitidine] | 0.977 | 0.855 |
| CC(C)Oc1ccc(C(=O)N[C@H](CNC(=O)CN(C)C)Cc2ccc(-c3cn4cccc([C@H](C)O)c4n3)cc2)cc1Cl | 0.709 | 0.64 |
| CCC(CC)CC1(C(=O)Nc2ccccc2SC(=O)C(C)C)CCCCC1 | 0.859 | 0.929 |
| O=C(Nc1ccc(OC(F)(F)F)cc1)c1sccc1NCc1ccnc2ccccc12 [OSI-930] | 0.819 | 0.904 |
